Marks after values point to notes of the source that are not given here.
Tested on: BaF3 EML-4-ALK-L1196M xenograft tumor
Test: Pharmacodynamic experiment in vivo, subcutaneous xenograft model
Parameters: species or system BALB/c nude mouse
Protocol: The model used in this trial was an engineered BALB/c nude mouse subcutaneous xenograft model of BaF3 EML-4-ALK-L1196M cells. Suspension culture of engineered BaF3 cells were carried out in vitro. […] Cell passage was processed twice a week. When the number of cells reached the requirement, the cells were collected, counted, diluted into a tumor cell suspension with a concentration of 1×10^7/ml with PBS, and carried to the animal room in an ice box for direct injection and inoculation. A 1 mL syringe was used to take the above-mentioned prepared tumor cell suspension with a concentration of 1×10^7/ml, and the tumor cell suspension was injected subcutaneously into the left forelimb armpit of the dorsal side of the mouse, 0.25 mL for each inoculation site. When the average volume of tumors reached about 160 mm^3, the drug was administered for each group, 15 mice in the vehicle group and 10 mice in each of the other administration groups.
Mode and frequency of administration: oral gavage administration, the volume of administration was 10 mL/kg, and the model group was given an equal volume of vehicle. It was administered 1 time a day for 14 consecutive days.
The mental, active, eating and other general conditions of the mice were observed every day, and the body weight was measured 3 times a week, and the short diameter (a) and long diameter (b) of the tumor of each mouse were measured with vernier calipers 3 times a week, and the tumor volume was calculated according to the formula (a^2×b)/2. The relative tumor volume (RTV) was calculated from the measured calculated tumor volume, RTV=Vt/V0. Wherein V0 was the tumor volume at randomization (i.e., d0) and Vt was the tumor volume at each measurement (i.e., dn). The relative tumor proliferation rate of anti-tumor activity evaluation index was calculated according to the following formula: relative tumor proliferation rate T/C (%): […]
(Note: TRTV: RTV in the treatment group; CRTV: RTV in the model control group. According to the evaluation criteria for efficacy in the “Technical Guidelines for Non-clinical Research of Cytotoxic Antitumor Drugs” issued by the National Medical Products Administration of China, T/C %≤40% is effective).

[1] = 30 mg/kg oral gavage 1 time a day, Day 3
[2] = 30 mg/kg oral gavage 1 time a day, Day 5
[3] = 30 mg/kg oral gavage 1 time a day, Day 7
[4] = 30 mg/kg oral gavage 1 time a day, Day 10
[5] = 30 mg/kg oral gavage 1 time a day, Day 12
[6] = 30 mg/kg oral gavage 1 time a day, Day 14
[7] = 30 mg/kg oral gavage once a day, D14
[8] = 40 mg/kg oral gavage 1 time a day, Day 3
[9] = 40 mg/kg oral gavage 1 time a day, Day 5
[10] = 40 mg/kg oral gavage 1 time a day, Day 7
[11] = 40 mg/kg oral gavage 1 time a day, Day 10
[12] = 40 mg/kg oral gavage 1 time a day, Day 12
[13] = 40 mg/kg oral gavage 1 time a day, Day 14
[14] = 40 mg/kg oral gavage once a day, D14

Compound: COc1cc(N2CCC(N3CCN(C)CC3)CC2)c(C)cc1Nc1ncc(Br)c(Nc2ccc(C)cc2P(C)(C)=O)n1 [Crystal form 1, (2-((5-bromo-2-((2-methoxy-5-methyl-4-(4-(4-methylpiperazin-1-yl)piperidin-1-yl)phenyl)amino)pyrimidin-4-yl)amino)-5-methylphenyl)dimethylphosphorus oxide dihydrate]
- Tumor volume (30 mg/kg oral gavage 1 time a day, Day 0): 160 mm^3
- Relative tumor proliferation rate T/C [1]: 28.53▴▴ %
- Tumor volume [1]: 102 mm^3
- Relative tumor proliferation rate T/C [2]: 16.41▴▴ %
- Tumor volume [2]: 89 mm^3
- Relative tumor proliferation rate T/C [3]: 8.23▴▴ %
- Tumor volume [3]: 75 mm^3
- Relative tumor proliferation rate T/C [4]: 6.61▴▴ %
- Tumor volume [4]: 91 mm^3
- Relative tumor proliferation rate T/C [5]: 6.34▴▴ %
- Tumor volume [5]: 109 mm^3
- Relative tumor proliferation rate T/C [6]: 4.85▴▴ %
- Tumor volume [6]: 101 mm^3
- Tumor volume [7]: 101 mm^3
- relative tumor proliferation rate T/C % [7]: 4.85%
- Tumor volume (40 mg/kg oral gavage 1 time a day, Day 0): 159 mm^3
- Relative tumor proliferation rate T/C [8]: 23.88▴▴ %
- Tumor volume [8]: 83 mm^3
- Relative tumor proliferation rate T/C [9]: 10.09▴▴ %
- Tumor volume [9]: 52 mm^3
- Relative tumor proliferation rate T/C [10]: 5.93▴▴ %
- Tumor volume [10]: 49 mm^3
- Relative tumor proliferation rate T/C [11]: 4.45▴▴ %
- Tumor volume [11]: 60 mm^3
- Relative tumor proliferation rate T/C [12]: 3.28▴▴ %
- Tumor volume [12]: 55 mm^3
- Relative tumor proliferation rate T/C [13]: 2.34▴▴ %
- Tumor volume [13]: 49 mm^3
- Tumor volume [14]: 49 mm^3
- relative tumor proliferation rate T/C % [14]: 2.34%
- effect on the growth of BaF3 EML-4-ALK-L1196M xenograft tumor (oral gavage once a day for 14 days, crystal form 1 30 and 40 mg/kg, compound 1 of WO2021073498A1 30.2 and 40.2 mg/kg): significantly inhibit the growth

Reference: patent publication US20240376138A1, “Crystal Forms, Preparation Method And Application Of Aryl Phosphine Oxide Compound” (Chengdu Di'Ao Jiuhong Pharmaceutical Factory, priority 2021, published 2024)
